Measured values published in patent publication US20240208992A1, “MACROCYCLES AS CFTR MODULATORS” (Idorsia Pharmaceuticals Ltd, priority 2021, published 2024).
pEC50: −log10 of the molar value.

Molecular target: human F508del-CFTR (Homo sapiens, UniProt P13569, DEL508-508)
Test: F508del-CFTR cell surface expression (corrector activity), DiscoveRx ß-galactosidase complementation chemiluminescence assay in recombinant U2OS cell line;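 note: U2OS cells co-expressing ProLink-tagged F508del-CFTR and a membrane-anchored enzyme acceptor, where more surface CFTR restores β-galactosidase activity measured by chemiluminescence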
Settings: U2OS cells, 16h compound incubation; for pEC50: geomean of several measurements; for Emax: in relation to the Emax of the corrector lumacaftor (=100%), arithmetic mean
[1] = EC50, F508del-CFTR cell surface expression

human F508del-CFTR, sequence (P13569 with tags, fused parts or gaps DEL508-508): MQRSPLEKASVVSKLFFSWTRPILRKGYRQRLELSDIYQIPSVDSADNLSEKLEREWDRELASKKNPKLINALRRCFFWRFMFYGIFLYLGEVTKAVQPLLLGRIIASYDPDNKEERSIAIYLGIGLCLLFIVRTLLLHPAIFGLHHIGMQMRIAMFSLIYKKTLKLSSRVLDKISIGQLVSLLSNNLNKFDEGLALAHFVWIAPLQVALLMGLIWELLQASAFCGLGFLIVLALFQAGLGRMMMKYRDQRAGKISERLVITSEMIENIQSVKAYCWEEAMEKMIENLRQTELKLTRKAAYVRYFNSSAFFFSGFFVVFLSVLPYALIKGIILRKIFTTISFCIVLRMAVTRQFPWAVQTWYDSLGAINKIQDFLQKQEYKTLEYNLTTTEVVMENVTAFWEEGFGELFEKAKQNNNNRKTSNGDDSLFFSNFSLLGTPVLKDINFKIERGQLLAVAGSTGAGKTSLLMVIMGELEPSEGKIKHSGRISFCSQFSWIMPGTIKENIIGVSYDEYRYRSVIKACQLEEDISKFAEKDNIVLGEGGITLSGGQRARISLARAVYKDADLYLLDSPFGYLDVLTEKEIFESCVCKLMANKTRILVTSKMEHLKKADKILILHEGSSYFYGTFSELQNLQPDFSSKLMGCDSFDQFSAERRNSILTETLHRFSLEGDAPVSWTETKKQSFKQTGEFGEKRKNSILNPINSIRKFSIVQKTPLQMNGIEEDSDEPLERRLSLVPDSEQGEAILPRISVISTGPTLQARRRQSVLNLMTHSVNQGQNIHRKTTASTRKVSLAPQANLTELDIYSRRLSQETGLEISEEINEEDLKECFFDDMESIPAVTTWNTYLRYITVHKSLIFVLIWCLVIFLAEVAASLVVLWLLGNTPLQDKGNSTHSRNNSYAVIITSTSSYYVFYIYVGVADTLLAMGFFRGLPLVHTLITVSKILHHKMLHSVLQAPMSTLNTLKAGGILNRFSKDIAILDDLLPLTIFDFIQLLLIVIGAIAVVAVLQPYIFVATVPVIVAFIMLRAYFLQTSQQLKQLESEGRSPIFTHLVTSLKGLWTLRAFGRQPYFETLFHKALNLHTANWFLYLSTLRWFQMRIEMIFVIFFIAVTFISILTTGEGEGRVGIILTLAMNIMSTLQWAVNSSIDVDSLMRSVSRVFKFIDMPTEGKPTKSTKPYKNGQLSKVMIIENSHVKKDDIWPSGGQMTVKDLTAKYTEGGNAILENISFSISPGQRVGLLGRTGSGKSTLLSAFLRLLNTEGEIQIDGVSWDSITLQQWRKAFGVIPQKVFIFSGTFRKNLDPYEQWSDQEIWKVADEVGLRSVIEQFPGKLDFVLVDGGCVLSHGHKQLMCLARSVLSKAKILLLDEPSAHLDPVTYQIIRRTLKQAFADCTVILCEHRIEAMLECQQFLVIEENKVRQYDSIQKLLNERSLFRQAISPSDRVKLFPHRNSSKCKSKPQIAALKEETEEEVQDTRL

| Compound | pEC50 [1] | Emax (U2OS) [%] | pEC50 (F508del-CFTR cell surface expression) | Emax [%] |
| --- | --- | --- | --- | --- |
| COc1nc(C)cc2c1C(=O)N[C@H](C(=O)NCCn1nnc(C3CC3)n1)CC(=O)N(C)[C@@H](CC(C)C)C(=O)N(C)[C@H](CC(F)(F)F)C(=O)N[C@H](Cc1ccccc1)CO2 [Example 806, (3R,6R,9S,13S)-3-benzyl-N-(2-(5-cyclopropyl-2H-tetrazol-2-yl)ethyl)-9-isobutyl-16-methoxy-7,10,18-trimethyl-5,8,11,15-tetraoxo-6-(2,2,2-trifluoroethyl)-2,3,4,5,6,7,8,9,10,11,12,13,14,15-tetradecahydropyrido[3,4-p][1]oxa[4,7,10,14]tetraazacycloheptadecine-13-carboxamide] | 6.63 | 394 |  |  |
| Cc1cc(CCNC(=O)[C@@H]2CC(=O)N(C)[C@@H](CC(C)C)C(=O)N(C)[C@H](Cc3nc(-c4ccc(F)cn4)no3)C(=O)N[C@H](Cc3ccccc3)COc3ccc4ncc(F)cc4c3C(=O)N2)on1 [Example 807, (3S,7S,10R,13R)-13-benzyl-20-fluoro-10-((3-(5-fluoropyridin-2-yl)-1,2,4-oxadiazol-5-yl)methyl)-7-isobutyl-6,9-dimethyl-N-(2-(3-methylisoxazol-5-yl)ethyl)-1,5,8,11-tetraoxo-1,2,3,4,5,6,7,8,9,10,11,12,13,14-tetradecahydro-[1]oxa[4,7,10,14]tetraazacycloheptadecino[16,17-f]quinoline-3-carboxamide] | 6.69 | 358 |  |  |
| CC(C)C[C@H]1C(=O)N(C)[C@H](Cc2nc(-c3ccc(F)cn3)no2)C(=O)N[C@H](Cc2ccccc2)COc2ccc3ncc(F)cc3c2C(=O)N[C@H](C(=O)NCCc2nc(C3CC3)no2)CC(=O)N1C [Example 808, (3S,7S,10R,13R)-13-benzyl-N-(2-(3-cyclopropyl-1,2,4-oxadiazol-5-yl)ethyl)-20-fluoro-10-((3-(5-fluoropyridin-2-yl)-1,2,4-oxadiazol-5-yl)methyl)-7-isobutyl-6,9-dimethyl-1,5,8,11-tetraoxo-1,2,3,4,5,6,7,8,9,10,11,12,13,14-tetradecahydro-[1]oxa[4,7,10,14]tetraazacycloheptadecino[16,17-f]quinoline-3-carboxamide] | 6.94 | 399 |  |  |
| CC(C)C[C@H]1C(=O)N(C)[C@H](Cc2nc(C(F)(F)F)no2)C(=O)N[C@H](Cc2ccccc2)COc2cnc3ccc(F)cc3c2C(=O)N[C@H](C(=O)NCCc2noc(C3CC3)n2)CC(=O)N1C [Example 811, (3S,7S,10R,13R)-13-benzyl-N-(2-(5-cyclopropyl-1,2,4-oxadiazol-3-yl)ethyl)-20-fluoro-7-isobutyl-6,9-dimethyl-1,5,8,11-tetraoxo-10-((3-(trifluoromethyl)-1,2,4-oxadiazol-5-yl)methyl)-1,2,3,4,5,6,7,8,9,10,11,12,13,14-tetradecahydro-[1]oxa[4,7,10,14]tetraazacycloheptadecino[17,16-c]quinoline-3-carboxamide] | 7.72 | 333 |  |  |
| CC(C)C[C@H]1C(=O)N(C)[C@@H](Cc2nc(C(F)(F)F)no2)C(=O)N[C@H](Cc2ccccc2)COc2cnc3ccc(F)cc3c2C(=O)N[C@H](C(=O)NCCc2noc(C3CC3)n2)CC(=O)N1C [Example 812, (3S,7S,10S,13R)-13-benzyl-N-(2-(5-cyclopropyl-1,2,4-oxadiazol-3-yl)ethyl)-20-fluoro-7-isobutyl-6,9-dimethyl-1,5,8,11-tetraoxo-10-((3-(trifluoromethyl)-1,2,4-oxadiazol-5-yl)methyl)-1,2,3,4,5,6,7,8,9,10,11,12,13,14-tetradecahydro-[1]oxa[4,7,10,14]tetraazacycloheptadecino[17,16-c]quinoline-3-carboxamide] | 6.90 | 280 |  |  |
| CC(C)C[C@H]1C(=O)N(C)[C@H](Cc2nc(-c3ccc(F)cn3)no2)C(=O)N[C@H](Cc2ccccc2)COc2cnc3ccc(F)cc3c2C(=O)N[C@H](C(=O)NCCc2noc(C3CC3)n2)CC(=O)N1C [Example 813, (3S,7S,10R,13R)-13-benzyl-N-(2-(5-cyclopropyl-1,2,4-oxadiazol-3-yl)ethyl)-20-fluoro-10-((3-(5-fluoropyridin-2-yl)-1,2,4-oxadiazol-5-yl)methyl)-7-isobutyl-6,9-dimethyl-1,5,8,11-tetraoxo-1,2,3,4,5,6,7,8,9,10,11,12,13,14-tetradecahydro-[1]oxa[4,7,10,14]tetraazacycloheptadecino[17,16-c]quinoline-3-carboxamide] | 6.96 | 346 |  |  |

Further lines, results first:

| pEC50 [1] | Emax (U2OS) [%] | pEC50 (F508del-CFTR cell surface expression) | Emax [%] | Compound |
| --- | --- | --- | --- | --- |
| 8.00 | 391 |  |  | COc1cc(CCNC(=O)[C@@H]2CC(=O)N(C)[C@@H](CC(C)C)C(=O)N(C)[C@H](Cc3nc(C(F)(F)F)no3)C(=O)N[C@H](Cc3ccccc3)COc3cnc4ccc(F)cc4c3C(=O)N2)on1 [Example 809, (3S,7S,10R,13R)-13-benzyl-20-fluoro-7-isobutyl-N-(2-(3-methoxyisoxazol-5-yl)ethyl)-6,9-dimethyl-1,5,8,11-tetraoxo-10-((3-(trifluoromethyl)-1,2,4-oxadiazol-5-yl)methyl)-1,2,3,4,5,6,7,8,9,10,11,12,13,14-tetradecahydro-[1]oxa[4,7,10,14]tetraazacycloheptadecino[17,16-c]quinoline-3-carboxamide] |
| 6.79 | 285 |  |  | COc1cc(CCNC(=O)[C@@H]2CC(=O)N(C)[C@@H](CC(C)C)C(=O)N(C)[C@@H](Cc3nc(C(F)(F)F)no3)C(=O)N[C@H](Cc3ccccc3)COc3cnc4ccc(F)cc4c3C(=O)N2)on1 [Example 810, (3S,7S,10S,13R)-13-benzyl-20-fluoro-7-isobutyl-N-(2-(3-methoxyisoxazol-5-yl)ethyl)-6,9-dimethyl-1,5,8,11-tetraoxo-10-((3-(trifluoromethyl)-1,2,4-oxadiazol-5-yl)methyl)-1,2,3,4,5,6,7,8,9,10,11,12,13,14-tetradecahydro-[1]oxa[4,7,10,14]tetraazacycloheptadecino[17,16-c]quinoline-3-carboxamide] |
|  |  | 6.20 | 242 | CC(C)C[C@H]1C(=O)N(C)[C@@H](Cc2nc(-c3ccc(F)cn3)no2)C(=O)N[C@H](Cc2ccccc2)COc2cnc3ccc(F)cc3c2C(=O)N[C@H](C(=O)NCCc2noc(C3CC3)n2)CC(=O)N1C [Example 814, (3S,7S,10S,13R)-13-benzyl-N-(2-(5-cyclopropyl-1,2,4-oxadiazol-3-yl)ethyl)-20-fluoro-10-((3-(5-fluoropyridin-2-yl)-1,2,4-oxadiazol-5-yl)methyl)-7-isobutyl-6,9-dimethyl-1,5,8,11-tetraoxo-1,2,3,4,5,6,7,8,9,10,11,12,13,14-tetradecahydro-[1]oxa[4,7,10,14]tetraazacycloheptadecino[17,16-c]quinoline-3-carboxamide] |
| 6.89 | 413 |  |  | COc1cc(CCNC(=O)[C@@H]2CC(=O)N(C)[C@@H](CC(C)C)C(=O)N(C)[C@H](Cc3nc(-c4ccc(F)cn4)no3)C(=O)N[C@H](Cc3ccccc3)COc3cnc4ccc(F)cc4c3C(=O)N2)on1 [Example 815, (3S,7S,10R,13R)-13-benzyl-20-fluoro-10-((3-(5-fluoropyridin-2-yl)-1,2,4-oxadiazol-5-yl)methyl)-7-isobutyl-N-(2-(3-methoxyisoxazol-5-yl)ethyl)-6,9-dimethyl-1,5,8,11-tetraoxo-1,2,3,4,5,6,7,8,9,10,11,12,13,14-tetradecahydro-[1]oxa[4,7,10,14]tetraazacycloheptadecino[17,16-c]quinoline-3-carboxamide] |
